Results published in publication PMC8041284, “Tunable Methacrylamides for Covalent Ligand Directed Release Chemistry” (Journal of the American Chemical Society, 2021).

biological target: BTK (Homo sapiens, UniProt Q06187); assay: biochemical; details: read-out: BTK inhibition (%), 0.75 uM BTK, […] probe 3l, 15 min preincubation
Sequence (Q06187 402-655 limits assumed): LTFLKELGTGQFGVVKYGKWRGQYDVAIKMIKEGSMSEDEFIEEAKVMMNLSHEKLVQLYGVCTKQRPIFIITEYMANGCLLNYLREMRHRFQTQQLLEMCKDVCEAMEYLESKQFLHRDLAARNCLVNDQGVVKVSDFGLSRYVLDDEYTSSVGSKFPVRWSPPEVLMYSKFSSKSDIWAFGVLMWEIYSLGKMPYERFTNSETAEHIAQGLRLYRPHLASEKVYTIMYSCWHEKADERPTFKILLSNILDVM

inhibition at 10 µM | SMILES
5.4% | CN(C)C(=O)[C@H](O)[C@H](Cc1ccccc1)NC(=O)c1cc2cc(Cl)ccc2[nH]1 [PCM-0065218]
2.1% | CN(C)CCOC(c1ccccc1)c1ccccc1 [PCM-0065230]
13.9% | Cc1cccc(-c2[nH]ncc2-c2ccc3ncccc3n2)n1 [PCM-0065277]
13.2% | Cc1cnc(C(=O)NCCc2ccc(S(=O)(=O)NC(=O)NC3CCCCC3)cc2)cn1 [PCM-0065278]
-8.6% | CCOC(=O)Nc1ccc(NCc2ccc(F)cc2)nc1N [PCM-0065288]
-11.7% | COc1cc2nc(N3CCN(C(=O)C4COc5ccccc5O4)CC3)nc(N)c2cc1OC (centres unmarked) [PCM-0065300]
-41.4% | O=C(O)CCc1ccc(NCc2cccc(Oc3ccccc3)c2)cc1 [PCM-0065313]
-7.8% | CNCCC(Oc1ccc(C(F)(F)F)cc1)c1ccccc1 (centres unmarked) [PCM-0065327]
-16.3% | COc1ccc2cccc(CCNC(C)=O)c2c1 [PCM-0065343]
-5.5% | Cc1oncc1C(=O)Nc1ccc(C(F)(F)F)cc1 [PCM-0065349]
-8.5% | CCN(CC)CCCC(C)Nc1c2ccc(Cl)cc2nc2ccc(OC)cc12 (centres unmarked) [PCM-0065371]
-9.3% | Cc1[nH]c(=O)c(C#N)cc1-c1ccncc1 [PCM-0065386]
-10.9% | Cc1cccc(C#Cc2ccccc2)n1 [PCM-0065388]
85.5% | O=C(c1ccc(OCCN2CCCCC2)cc1)c1c(-c2ccc(O)cc2)sc2cc(O)ccc12 [PCM-0065394]
12.4% | CN1CCN2c3ccccc3Cc3ccccc3C2C1 (centres unmarked) [PCM-0065420]
-8.6% | Cc1ccc(N(CC2=NCCN2)c2cccc(O)c2)cc1 [PCM-0065435]
8.3% | CC1=C(CC(=O)O)c2cc(F)ccc2/C1=C\c1ccc([S+](C)[O-])cc1 (centres unmarked) [PCM-0065451]
17.1% | O=C(/C=C/c1ccc(O)cc1)c1ccc(O)cc1O [PCM-0065490]
-17.9% | CC(C(=O)O)c1cccc(C(=O)c2ccccc2)c1 (centres unmarked) [PCM-0065500]

inhibition at 10 µM | SMILES
16.3% | Nc1nnc(-c2cccc(Cl)c2Cl)c(N)n1 [PCM-0065504]
-6% | COc1cc2nc(N3CCN(C(=O)c4ccco4)CC3)nc(N)c2cc1OC [PCM-0065512]
0.7% | O=c1c2ccccc2nc2n1CCc1c-2[nH]c2ccccc12 [PCM-0065551]
15.2% | O=C(CCc1ccc(O)cc1)c1c(O)cc(O)cc1O [PCM-0065552]
-12.4% | Cc1ccc(S(=O)(=O)/C=C/C#N)cc1 [PCM-0065564]
10.3% | CN1CCC(=C2c3ccccc3CC(=O)c3sccc32)CC1 [PCM-0065580]
-3.9% | Cc1c(OCC(F)(F)F)ccnc1C[S+]([O-])c1nc2ccccc2[nH]1 (centres unmarked) [PCM-0065586]
-22.1% | O=c1cc(N2CCOCC2)oc2c(-c3ccccc3)cccc12 [PCM-0065588]
-17.1% | CCC1(c2ccccc2)C(=O)NCNC1=O [PCM-0065590]
52.1% | O=C1Cc2cc(CCN3CCN(c4nsc5ccccc45)CC3)c(Cl)cc2N1 [PCM-0065598]
11.7% | CC(O)(CS(=O)(=O)c1ccc(F)cc1)C(=O)Nc1ccc(C#N)c(C(F)(F)F)c1 (centres unmarked) [PCM-0065600]
4.8% | COc1cccc(-c2cc(=O)c3ccccc3o2)c1N [PCM-0065604]
75.7% | C[n+]1cc2c3c(ccc2c2ccc4cc5c(cc4c21)OCO5)OCO3 [PCM-0065605]
25.5% | Cc1cccc(-c2[nH]c(C(C)(C)C)nc2-c2ccc3nccnc3c2)n1 [PCM-0065614]
11% | O=C(O)c1nn(Cc2ccc(Cl)cc2Cl)c2ccccc12 [PCM-0065622]
0.8% | O=C(Nc1ccccc1)c1cc([N+](=O)[O-])ccc1Cl [PCM-0065623]
23.3% | Oc1ccc(/C=C/c2cc(O)cc(O)c2)cc1 [PCM-0065629]
14.8% | Clc1ccc2nsnc2c1NC1=NCCN1 [PCM-0065635]
-8.5% | CCCc1ncc(C[n+]2ccccc2C)c(N)n1 [PCM-0085765]

The next lines start with the compound.

SMILES | inhibition at 10 µM
C[N+](C)(C)CCCCCC[N+](C)(C)C [PCM-0065242] | -14.5%
O=c1[nH]cc(F)c(=O)[nH]1 [PCM-0065247] | -0.7%
Nc1nc2c(ncn2COC(CO)CO)c(=O)[nH]1 [PCM-0065253] | -3.9%
C[C@@](Cc1ccc(O)c(O)c1)(NN)C(=O)O [PCM-0065259] | -14.8%
CN1C(=O)CCS(=O)(=O)C1c1ccc(Cl)cc1 (centres unmarked) [PCM-0065261] | -14%
OCCN(CCO)c1nc(N2CCCCC2)c2nc(N(CCO)CCO)nc(N3CCCCC3)c2n1 [PCM-0065264] | 10.9%
CNS(=O)(=O)CCc1ccc2[nH]cc(C3CCN(C)CC3)c2c1 [PCM-0065268] | -14.8%
NC(=O)CC[C@H](N)C(=O)O [PCM-0065292] | 17.9%
CC[N+](CC)(CC)CCOc1cccc(OCC[N+](CC)(CC)CC)c1OCC[N+](CC)(CC)CC [PCM-0065294] | 9.3%
O=P(O)(O)C(Cl)(Cl)P(=O)(O)O [PCM-0065307] | -23.8%
Cc1cc(O)c2c(c1)C(=O)c1cc(O)cc(O)c1C2=O [PCM-0065315] | 69.3%
CC(C)C(=O)Nc1ccc([N+](=O)[O-])c(C(F)(F)F)c1 [PCM-0065325] | -3.4%
COCCc1ccc(OCC(O)CNC(C)C)cc1 (centres unmarked) [PCM-0065348] | 17%
CCN(CC)CCOC(=O)c1ccc(N)cc1 [PCM-0065363] | 3.9%
O=[N+]([O-])c1ccc2c(c1)S(=O)(=O)C=C2 [PCM-0065368] | 40.9%
COC(=O)Nc1nc2ccc(C(=O)c3cccs3)cc2[nH]1 [PCM-0065378] | -6.2%
CC(C)NCC(O)c1ccc(NS(C)(=O)=O)cc1 (centres unmarked) [PCM-0065402] | -16.3%
CC1CCN(CC[C@H]2CCCN2S(=O)(=O)c2cccc(O)c2)CC1 [PCM-0065410] | 7.8%
NC(=O)c1ncn([C@@H]2O[C@H](CO)[C@@H](O)[C@H]2O)c1O [PCM-0065422] | 0.9%

SMILES | inhibition at 10 µM
CC(=O)N1CCN(c2ccc(OC[C@@H]3CO[C@@](Cn4ccnc4)(c4ccc(Cl)cc4Cl)O3)cc2)CC1 [PCM-0065423] | -29.8%
CC1=C(/C=C/C(C)=C/C=C/C(C)=C/C(=O)O)C(C)(C)CCC1 [PCM-0065434] | -32.7%
CCCN1C[C@H](CSC)C[C@@H]2c3cccc4[nH]cc(c34)C[C@H]21 [PCM-0065439] | -1.6%
Nc1nc2ccc(OC(F)(F)F)cc2s1 [PCM-0065440] | -10.1%
COc1nc(C)nc(Cl)c1NC1=NCCN1 [PCM-0065456] | 0.8%
O=C(c1ccccc1)c1ccc2n1CCC2C(=O)O (centres unmarked) [PCM-0065461] | -11.7%
CC(C(=O)O)c1ccc(CC2CCCC2=O)cc1 (centres unmarked) [PCM-0065463] | 1.7%
CCn1cc(C(=O)O)c(=O)c2cc(F)c(N3CCNC(C)C3)c(F)c21 (centres unmarked) [PCM-0065465] | -2.6%
COc1ccc(C2CNC(=O)C2)cc1OC1CCCC1 (centres unmarked) [PCM-0065474] | 13.2%
CCCCC1C(=O)N(c2ccccc2)N(c2ccccc2)C1=O [PCM-0065475] | -17.2%
CN/C(=C\[N+](=O)[O-])NCCSCc1ccc(CN(C)C)o1 [PCM-0065476] | -3.4%
NCCCNCCCCNCCCN [PCM-0065483] | -26.9%
CCCCCCNC(=O)n1cc(F)c(=O)[nH]c1=O [PCM-0065487] | -7%
c1ccc([C@H]2CN3CCSC3=N2)cc1 [PCM-0065508] | 17.9%
C[C@](N)(Cc1ccc(O)c(O)c1)C(=O)O [PCM-0065509] | -18.7%
CC1=C(/C=C/C(C)=C/C=C/C(C)=C\C(=O)O)C(C)(C)CCC1 [PCM-0065511] | -42.1%
CCCNC(C)C(=O)Nc1ccccc1C (centres unmarked) [PCM-0065518] | -16.3%
CNCC(O)c1ccc(O)cc1 (centres unmarked) [PCM-0065519] | 7%
CCN1CCC[C@H]1CNC(=O)c1cc(S(N)(=O)=O)ccc1OC [PCM-0065527] | -6.2%

SMILES | inhibition at 10 µM
CN[C@H](CC(=O)O)C(=O)O [PCM-0065539] | -10%
O=c1c(O)c(-c2ccc(O)cc2O)oc2cc(O)cc(O)c12 [PCM-0065541] | 10.1%
O=C1c2c(O)ccc(O)c2C(=O)c2c(NCCNCCO)ccc(NCCNCCO)c21 [PCM-0065547] | 51%
NC(=O)c1cnccn1 [PCM-0065550] | 5.4%
CC(=O)Oc1cc(C(F)(F)F)ccc1C(=O)O [PCM-0065558] | -8.6%
OCc1cc(C(O)CNCCCCCCOCCCCc2ccccc2)ccc1O (centres unmarked) [PCM-0065569] | -12.4%
COc1ccc2[nH]cc(CCNC(C)=O)c2c1 [PCM-0065583] | 11.7%
CN(C)C(=O)C(CCN1CCC(O)(c2ccc(Cl)cc2)CC1)(c1ccccc1)c1ccccc1 [PCM-0065584] | 18.7%
CCCN(CCC)CCc1cccc2c1CC(=O)N2 [PCM-0065591] | -18.7%
CCCCCN(C)CCC(O)(P(=O)(O)O)P(=O)(O)O [PCM-0065595] | -0.9%
CC(C)NCC(O)c1ccc(O)c(O)c1 (centres unmarked) [PCM-0065609] | 7%
CC(=O)OCC(CCn1cnc2cnc(N)nc21)COC(C)=O [PCM-0065613] | -20.2%
NC(=O)c1cn(Cc2c(F)cccc2F)nn1 [PCM-0065619] | -17.9%
C[C@H](N[C@@H](CCc1ccccc1)C(=O)O)C(=O)N1CCC[C@H]1C(=O)O [PCM-0065638] | 3.1%
Nc1nc2n[nH]nc2c(=O)[nH]1 [PCM-0085758] | 4.7%
Cc1ncc([N+](=O)[O-])n1CCO [PCM-0085759] | -5.4%
CN(C)C(=N)N=C(N)N [PCM-0085761] | 21.8%
N=C(N=C(N)N)N1CCOCC1 [PCM-0085762] | -3.1%
COc1ccc(CC2c3cc(OC)c(OC)cc3CC[N+]2(C)CCC(=O)OCCCCCOC(=O)CC[N+]2(C)CCc3cc(OC)c(OC)cc3C2Cc2ccc(OC)c(OC)c2)cc1OC (centres unmarked) [PCM-0085763] | -16.3%
